What was measured:
Assay in all cases: KINOMEscan binding assay
Conditions in all cases: read-out: % Ctrl @ 10000 nM
[1] = molecular target: ERBB3 (Homo sapiens, UniProt P21860)
[2] = molecular target: EGFR (Homo sapiens, UniProt P00533)
[3] = molecular target: FGR (Homo sapiens, UniProt P09769)
[4] = molecular target: KIT-autoinhibited (Homo sapiens, UniProt P10721)
[5] = molecular target: PIK3CD (Homo sapiens, UniProt O00329)
[6] = molecular target: DAPK3 (Homo sapiens, UniProt O43293)
[7] = molecular target: T1, TYRO3 (Homo sapiens, UniProt Q06418)
T1 construct: purchased DiscoveRx (KINOMEscan, LeadHunter Discovery services)

[8] = molecular target: NEK6 (Homo sapiens, UniProt Q9HC98)
[9] = molecular target: MLK2 (Homo sapiens, UniProt Q02779)
[10] = molecular target: PDPK1 (Homo sapiens, UniProt O15530)
[11] = molecular target: EPHB6 (Homo sapiens, UniProt O15197)
[12] = molecular target: ERK3 (Homo sapiens, UniProt Q16659)
[13] = molecular target: CAMK2G (Homo sapiens, UniProt Q13555)
[14] = molecular target: MAK (Homo sapiens, UniProt P20794)
[15] = molecular target: INSR (Homo sapiens, UniProt P06213)
[16] = molecular target: NEK7 (Homo sapiens, UniProt Q8TDX7)
[17] = molecular target: PIK3CA (C420R) (Homo sapiens, UniProt P42336, C420R)
[18] = molecular target: HPK1 (Homo sapiens, UniProt Q92918)
[19] = molecular target: EGFR (G719S) (Homo sapiens, UniProt P00533, G719S)
[20] = molecular target: FLT3 (D835Y) (Homo sapiens, UniProt P36888, D835Y)
[21] = molecular target: KIT (Homo sapiens, UniProt P10721)
[22] = molecular target: ABL1 (F317I) phosphorylated (Homo sapiens, UniProt P00519, F317I)
[23] = molecular target: PAK4 (Homo sapiens, UniProt O96013)
[24] = molecular target: AAK1 (Homo sapiens, UniProt Q2M2I8)
[25] = molecular target: SGK3 (Homo sapiens, UniProt Q96BR1)
[26] = molecular target: AKT2 (Homo sapiens, UniProt P31751)
[27] = molecular target: PRKCD (Homo sapiens, UniProt Q05655)
[28] = molecular target: EPHB2 (Homo sapiens, UniProt P29323)
[29] = molecular target: EPHA4 (Homo sapiens, UniProt P54764)
[30] = molecular target: RSK4 Kin.Dom.2-C-terminal (Homo sapiens, UniProt Q9UK32)
[31] = molecular target: CLK4 (Homo sapiens, UniProt Q9HAZ1)
[32] = molecular target: ASK2 (Homo sapiens, UniProt O95382)
[33] = molecular target: PRKR (Homo sapiens, UniProt P19525)
[34] = molecular target: T2, ULK3 (Homo sapiens, UniProt Q6PHR2)
T2 construct: purchased DiscoveRx (KINOMEscan, LeadHunter Discovery services)

[35] = molecular target: STK35 (Homo sapiens, UniProt Q8TDR2)
[36] = molecular target: ADCK3 (Homo sapiens, UniProt Q8NI60)
[37] = molecular target: ACVR2A (Homo sapiens, UniProt P27037)
[38] = molecular target: IRAK1 (Homo sapiens, UniProt P51617)
[39] = molecular target: NEK2 (Homo sapiens, UniProt P51955)
[40] = molecular target: TLK2 (Homo sapiens, UniProt Q86UE8)
[41] = molecular target: STK33 (Homo sapiens, UniProt Q9BYT3)
[42] = molecular target: CSNK1A1 (Homo sapiens, UniProt P48729)
[43] = molecular target: PIK3CA (M1043I) (Homo sapiens, UniProt P42336, M1043I)

EGFR, sequence (P00533 25-1210): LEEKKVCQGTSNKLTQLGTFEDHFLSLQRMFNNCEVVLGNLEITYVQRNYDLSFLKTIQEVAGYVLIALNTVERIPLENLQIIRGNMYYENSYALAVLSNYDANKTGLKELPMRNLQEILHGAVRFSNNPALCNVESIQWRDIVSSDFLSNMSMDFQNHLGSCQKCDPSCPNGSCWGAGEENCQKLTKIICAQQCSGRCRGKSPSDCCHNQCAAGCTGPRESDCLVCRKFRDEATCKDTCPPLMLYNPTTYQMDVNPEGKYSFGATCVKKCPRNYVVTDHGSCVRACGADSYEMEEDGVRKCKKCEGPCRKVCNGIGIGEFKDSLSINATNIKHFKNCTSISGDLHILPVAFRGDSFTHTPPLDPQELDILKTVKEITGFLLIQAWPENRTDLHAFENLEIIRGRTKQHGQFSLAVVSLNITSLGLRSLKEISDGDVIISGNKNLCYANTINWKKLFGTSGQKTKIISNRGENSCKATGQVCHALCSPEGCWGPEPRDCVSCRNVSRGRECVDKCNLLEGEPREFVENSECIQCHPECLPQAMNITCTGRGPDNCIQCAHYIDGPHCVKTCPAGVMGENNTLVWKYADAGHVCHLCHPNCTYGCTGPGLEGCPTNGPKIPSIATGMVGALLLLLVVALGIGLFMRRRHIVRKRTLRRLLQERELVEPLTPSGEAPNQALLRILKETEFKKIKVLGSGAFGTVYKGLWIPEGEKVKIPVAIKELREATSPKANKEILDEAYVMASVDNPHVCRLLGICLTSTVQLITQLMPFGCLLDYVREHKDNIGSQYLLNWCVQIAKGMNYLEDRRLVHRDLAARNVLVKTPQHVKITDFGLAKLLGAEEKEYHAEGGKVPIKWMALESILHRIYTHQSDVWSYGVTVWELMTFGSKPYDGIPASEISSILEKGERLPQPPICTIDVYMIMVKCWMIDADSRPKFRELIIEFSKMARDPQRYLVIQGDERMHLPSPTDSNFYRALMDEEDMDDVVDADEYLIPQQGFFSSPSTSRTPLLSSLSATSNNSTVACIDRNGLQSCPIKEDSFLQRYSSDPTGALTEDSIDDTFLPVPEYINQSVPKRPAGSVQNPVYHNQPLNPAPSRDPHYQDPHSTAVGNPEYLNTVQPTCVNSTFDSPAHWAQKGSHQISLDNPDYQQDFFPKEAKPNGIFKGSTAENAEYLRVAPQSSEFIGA
INSR, sequence (P06213 28-1382): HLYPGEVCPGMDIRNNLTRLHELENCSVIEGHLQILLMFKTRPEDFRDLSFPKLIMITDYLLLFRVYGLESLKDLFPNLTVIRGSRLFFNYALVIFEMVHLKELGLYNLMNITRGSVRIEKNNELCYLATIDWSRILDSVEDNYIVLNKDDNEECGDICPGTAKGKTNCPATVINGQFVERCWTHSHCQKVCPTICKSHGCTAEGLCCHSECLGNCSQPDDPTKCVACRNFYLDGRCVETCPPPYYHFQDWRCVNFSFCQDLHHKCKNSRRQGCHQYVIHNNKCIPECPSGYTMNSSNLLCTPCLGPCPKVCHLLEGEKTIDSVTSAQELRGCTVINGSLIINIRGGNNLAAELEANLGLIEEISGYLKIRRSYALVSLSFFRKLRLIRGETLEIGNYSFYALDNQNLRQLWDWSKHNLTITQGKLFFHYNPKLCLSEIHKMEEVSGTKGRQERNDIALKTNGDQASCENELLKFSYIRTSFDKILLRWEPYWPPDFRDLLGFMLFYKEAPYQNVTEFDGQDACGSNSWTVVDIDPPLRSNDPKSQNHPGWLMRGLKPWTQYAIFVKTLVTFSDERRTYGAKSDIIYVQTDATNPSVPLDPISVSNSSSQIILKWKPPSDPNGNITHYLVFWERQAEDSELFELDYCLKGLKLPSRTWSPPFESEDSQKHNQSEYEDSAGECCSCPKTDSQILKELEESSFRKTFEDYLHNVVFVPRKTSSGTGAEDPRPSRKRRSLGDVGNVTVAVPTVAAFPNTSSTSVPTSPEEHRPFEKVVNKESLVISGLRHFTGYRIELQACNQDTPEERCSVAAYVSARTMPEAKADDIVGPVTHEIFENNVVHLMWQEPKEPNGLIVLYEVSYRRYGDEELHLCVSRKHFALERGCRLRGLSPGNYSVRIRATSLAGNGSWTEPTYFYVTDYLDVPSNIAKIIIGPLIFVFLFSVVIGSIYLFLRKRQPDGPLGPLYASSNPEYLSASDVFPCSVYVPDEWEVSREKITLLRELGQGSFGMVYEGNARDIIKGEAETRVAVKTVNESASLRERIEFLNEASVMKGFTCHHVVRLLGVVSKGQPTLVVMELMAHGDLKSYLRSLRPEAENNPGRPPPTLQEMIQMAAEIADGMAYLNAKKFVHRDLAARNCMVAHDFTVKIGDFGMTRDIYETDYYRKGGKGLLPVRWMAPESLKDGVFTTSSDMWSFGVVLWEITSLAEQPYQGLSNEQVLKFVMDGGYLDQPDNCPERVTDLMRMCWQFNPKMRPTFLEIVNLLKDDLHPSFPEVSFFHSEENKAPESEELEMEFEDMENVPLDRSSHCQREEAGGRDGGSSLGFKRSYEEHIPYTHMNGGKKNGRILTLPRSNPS
PAK4, sequence (O96013 whole entry): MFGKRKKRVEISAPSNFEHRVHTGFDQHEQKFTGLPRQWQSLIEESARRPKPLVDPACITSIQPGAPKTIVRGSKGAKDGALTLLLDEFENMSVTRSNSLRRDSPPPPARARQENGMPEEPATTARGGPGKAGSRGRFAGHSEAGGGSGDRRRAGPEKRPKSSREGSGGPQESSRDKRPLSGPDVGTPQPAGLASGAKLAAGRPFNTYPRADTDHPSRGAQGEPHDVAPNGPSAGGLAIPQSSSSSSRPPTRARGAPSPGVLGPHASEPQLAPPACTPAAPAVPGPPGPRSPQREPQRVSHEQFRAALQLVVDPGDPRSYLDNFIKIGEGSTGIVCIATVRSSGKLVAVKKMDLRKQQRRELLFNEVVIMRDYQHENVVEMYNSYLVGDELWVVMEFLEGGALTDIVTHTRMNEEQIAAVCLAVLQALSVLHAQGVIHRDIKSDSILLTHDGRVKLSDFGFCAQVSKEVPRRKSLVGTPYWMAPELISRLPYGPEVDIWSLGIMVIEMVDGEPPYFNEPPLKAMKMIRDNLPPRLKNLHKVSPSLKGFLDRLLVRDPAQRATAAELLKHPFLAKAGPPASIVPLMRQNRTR
PRKR, sequence (P19525 whole entry): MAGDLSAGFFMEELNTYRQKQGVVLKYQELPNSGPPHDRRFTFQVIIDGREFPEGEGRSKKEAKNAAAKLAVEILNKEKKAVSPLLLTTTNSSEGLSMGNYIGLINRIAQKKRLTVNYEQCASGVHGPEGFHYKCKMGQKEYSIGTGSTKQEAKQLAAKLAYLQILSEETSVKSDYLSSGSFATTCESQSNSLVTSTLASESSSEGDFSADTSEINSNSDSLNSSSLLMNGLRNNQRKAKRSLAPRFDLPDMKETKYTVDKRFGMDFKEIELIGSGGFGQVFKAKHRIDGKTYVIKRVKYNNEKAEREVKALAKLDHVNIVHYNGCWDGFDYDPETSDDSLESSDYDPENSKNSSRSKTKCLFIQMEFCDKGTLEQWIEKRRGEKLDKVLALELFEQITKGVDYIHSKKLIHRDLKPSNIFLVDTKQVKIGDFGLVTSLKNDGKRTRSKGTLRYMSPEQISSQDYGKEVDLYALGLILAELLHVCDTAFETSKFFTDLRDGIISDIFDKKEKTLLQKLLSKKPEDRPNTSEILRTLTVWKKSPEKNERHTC
AKT2, sequence (P31751 whole entry): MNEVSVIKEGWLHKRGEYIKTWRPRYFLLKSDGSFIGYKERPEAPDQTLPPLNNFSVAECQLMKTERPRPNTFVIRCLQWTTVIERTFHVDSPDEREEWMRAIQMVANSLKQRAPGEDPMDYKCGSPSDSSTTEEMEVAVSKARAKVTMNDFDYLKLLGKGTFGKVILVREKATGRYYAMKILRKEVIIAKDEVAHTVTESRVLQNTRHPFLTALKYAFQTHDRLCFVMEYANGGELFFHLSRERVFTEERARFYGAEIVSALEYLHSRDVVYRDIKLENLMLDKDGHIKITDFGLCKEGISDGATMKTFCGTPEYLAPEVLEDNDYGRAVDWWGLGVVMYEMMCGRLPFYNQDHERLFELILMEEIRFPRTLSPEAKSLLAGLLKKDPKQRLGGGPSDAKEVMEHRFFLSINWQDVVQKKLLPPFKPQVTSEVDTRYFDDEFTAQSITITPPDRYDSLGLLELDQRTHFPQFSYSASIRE
CAMK2G, sequence (Q13555 whole entry): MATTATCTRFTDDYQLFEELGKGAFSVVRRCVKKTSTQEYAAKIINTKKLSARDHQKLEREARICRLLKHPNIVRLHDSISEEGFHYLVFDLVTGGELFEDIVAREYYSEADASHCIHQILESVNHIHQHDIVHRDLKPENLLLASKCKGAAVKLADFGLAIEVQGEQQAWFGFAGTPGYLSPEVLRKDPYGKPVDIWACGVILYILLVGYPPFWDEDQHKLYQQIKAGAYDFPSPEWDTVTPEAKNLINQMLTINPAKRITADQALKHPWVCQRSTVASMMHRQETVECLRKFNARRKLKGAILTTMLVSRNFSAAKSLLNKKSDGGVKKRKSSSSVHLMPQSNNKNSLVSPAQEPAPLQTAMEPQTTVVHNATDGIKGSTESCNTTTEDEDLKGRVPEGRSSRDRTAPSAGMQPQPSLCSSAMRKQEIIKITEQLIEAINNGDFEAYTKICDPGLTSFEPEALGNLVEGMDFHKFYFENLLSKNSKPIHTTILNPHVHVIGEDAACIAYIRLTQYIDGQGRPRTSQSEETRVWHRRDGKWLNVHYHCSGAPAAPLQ
RSK4 Kin.Dom.2-C-terminal, sequence (Q9UK32 426-683 limits assumed): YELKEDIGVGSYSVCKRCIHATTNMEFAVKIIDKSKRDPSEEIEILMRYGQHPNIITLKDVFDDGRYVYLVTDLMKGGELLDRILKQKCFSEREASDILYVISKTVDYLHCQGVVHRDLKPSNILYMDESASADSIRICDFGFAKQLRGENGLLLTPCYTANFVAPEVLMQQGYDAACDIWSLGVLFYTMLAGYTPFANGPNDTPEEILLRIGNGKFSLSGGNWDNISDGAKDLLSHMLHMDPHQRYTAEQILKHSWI

## Nc1ncc(-c2nc3ccccc3o2)c(-c2ccncc2)n1 [Comparative Compound 324, 5-(1,3-benzoxazol-2-yl)-4-(pyridine-4-yl)pyrimidin-2-amine]
[1]
  remaining binding at 10 µM: 92%
[2]
  remaining binding at 10 µM: 100%
[3]
  remaining binding at 10 µM: 94%
[4]
  remaining binding at 10 µM: 88%
[5]
  remaining binding at 10 µM: 100%
[6]
  remaining binding at 10 µM: 100%
[7]
  remaining binding at 10 µM: 99%
[8]
  remaining binding at 10 µM: 91%
[9]
  remaining binding at 10 µM: 100%
[10]
  remaining binding at 10 µM: 100%
[11]
  remaining binding at 10 µM: 65%
[12]
  remaining binding at 10 µM: 100%
[13]
  remaining binding at 10 µM: 100%
[14]
  remaining binding at 10 µM: 86%
[15]
  remaining binding at 10 µM: 100%
[16]
  remaining binding at 10 µM: 100%
[17]
  remaining binding at 10 µM: 99%
[18]
  remaining binding at 10 µM: 86%
[19]
  remaining binding at 10 µM: 63%
[20]
  remaining binding at 10 µM: 90%
[21]
  remaining binding at 10 µM: 91%
[22]
  remaining binding at 10 µM: 100%
[23]
  remaining binding at 10 µM: 98%
[24]
  remaining binding at 10 µM: 83%
[25]
  remaining binding at 10 µM: 94%
[26]
  remaining binding at 10 µM: 100%
[27]
  remaining binding at 10 µM: 86%
[28]
  remaining binding at 10 µM: 99%
[29]
  remaining binding at 10 µM: 100%
[30]
  remaining binding at 10 µM: 35%
[31]
  remaining binding at 10 µM: 83%
[32]
  remaining binding at 10 µM: 99%
[33]
  remaining binding at 10 µM: 96%
[34]
  remaining binding at 10 µM: 100%
[35]
  remaining binding at 10 µM: 100%
[36]
  remaining binding at 10 µM: 88%
[37]
  remaining binding at 10 µM: 100%
[38]
  remaining binding at 10 µM: 87%
[39]
  remaining binding at 10 µM: 98%
[40]
  remaining binding at 10 µM: 100%
[41]
  remaining binding at 10 µM: 77%
[42]
  remaining binding at 10 µM: 4.2%
[43]
  remaining binding at 10 µM: 100%

## CNc1c(C(N)=O)c2ccccn2c1C(=O)c1ccc(F)cc1 [Compound A, 2-methyl-amino-3-[(4-fluorophenyl)carbonyl]indolizine-1-carboxamide]
[1]
  remaining binding at 10 µM: 62%
[2]
  remaining binding at 10 µM: 49%
[3]
  remaining binding at 10 µM: 66%
[4]
  remaining binding at 10 µM: 78%
[5]
  remaining binding at 10 µM: 100%
[6]
  remaining binding at 10 µM: 86%
[7]
  remaining binding at 10 µM: 100%
[8]
  remaining binding at 10 µM: 76%
[9]
  remaining binding at 10 µM: 91%
[10]
  remaining binding at 10 µM: 92%
[11]
  remaining binding at 10 µM: 64%
[12]
  remaining binding at 10 µM: 88%
[13]
  remaining binding at 10 µM: 87%
[14]
  remaining binding at 10 µM: 59%
[15]
  remaining binding at 10 µM: 100%
[16]
  remaining binding at 10 µM: 100%
[17]
  remaining binding at 10 µM: 94%
[18]
  remaining binding at 10 µM: 82%
[19]
  remaining binding at 10 µM: 24%
[20]
  remaining binding at 10 µM: 94%
[21]
  remaining binding at 10 µM: 32%
[22]
  remaining binding at 10 µM: 88%
[23]
  remaining binding at 10 µM: 89%
[24]
  remaining binding at 10 µM: 62%
[25]
  remaining binding at 10 µM: 98%
[26]
  remaining binding at 10 µM: 98%
[27]
  remaining binding at 10 µM: 93%
[28]
  remaining binding at 10 µM: 82%
[29]
  remaining binding at 10 µM: 98%
[30]
  remaining binding at 10 µM: 6.6%
[31]
  remaining binding at 10 µM: 76%
[32]
  remaining binding at 10 µM: 100%
[33]
  remaining binding at 10 µM: 90%
[34]
  remaining binding at 10 µM: 100%
[35]
  remaining binding at 10 µM: 100%
[36]
  remaining binding at 10 µM: 91%
[37]
  remaining binding at 10 µM: 98%
[38]
  remaining binding at 10 µM: 93%
[39]
  remaining binding at 10 µM: 92%
[40]
  remaining binding at 10 µM: 94%
[41]
  remaining binding at 10 µM: 72%
[42]
  remaining binding at 10 µM: 0.95%
[43]
  remaining binding at 10 µM: 100%

Source: US10815230B2, “Casein kinase 1 delta inhibitor” (ELECTROPHORETICS LIMITED, priority 2015, dated 2020)
